Columns and labels:
[1] = tested on: FLT3; assay: FLT3 enzymatic assay; assay type: biochemical
Experimental: Example C. FLT3 Enzymatic Assay
(§1) The kinase assays were carried out at room temperature in assay buffer (HEPES 50 mM, pH 7.0, NaN3 0.02%, BSA 0.01%, Orthovanadate 0.1 mM, DTT 1 mM, MgCl2 10 mM) in a final volume of 10 μL. Testing compounds were prepared by serial dilution in DMSO and transferred to the plate wells by ECHO liquid handler (Labcyte) with 0.5% DMSO in the final assay. […]. Reactions were initiated by the addition of 5 μL ATP in assay buffer. The final 10 μL kinase reaction consists of 0.011 nM FLT3, 1 mM ATP, 500 nM TK Substrate-biotin and SEB reagent 62.5 nM in assay buffer. […] The plates were then sealed and centrifuged at 1800 rpm for 2 minutes. After 60 minutes incubation at room temperature, the product activity was determined by measuring the fluorescence at 620 nm and 665 nm on Pherastar microplate reader (BMG Labtech). A ratio is calculated (665/620 nm) for each well. Wells with DMSO only were served as the positive controls and wells containing no ATP were used as negative controls. IC50 determination was performed by fitting the curve of percent control activity versus the log of the compound concentration using the GraphPad Prism 7.0 software.

[2] = biological target: KIT (Homo sapiens, UniProt P10721); assay: KIT enzymatic assay; assay type: biochemical; settings: 1 mM ATP
Experimental: (§2) Example D. KIT Enzymatic Assay
as §1, with “0.12” for “0.011”, “KIT,” for “FLT3,”

[3] = tested on: KIT; assay: KIT enzymatic assay; assay type: biochemical
Experimental: as §2
as §1, with “0.12” for “0.011”, “KIT,” for “FLT3,”

[4] = In vitro intrinsic clearance; assay type: in vitro ADME; settings: human liver microsomes, 1 μM
Experimental: Example G. In Vitro Intrinsic Clearance Protocol
For in vitro metabolic stability experiments, test compounds were incubated with human liver microsomes at 37° C. The incubation mixture contained test compounds (1 μM), NADPH (2 mM), and human liver microsomes (0.5 mg protein/mL) in 100 mM phosphate buffer (pH 7.4). The mixture was pre-incubated for 2 min at 37° C. before the addition of NADPH. Reactions were commenced upon the addition of NADPH and quenched with ice-cold methanol at 0, 10, 20, and 30 min. Terminated incubation mixtures were analyzed using LC-MS/MS system. The analytical system consisted of a Shimadzu LC-30AD binary pump system and SIL-30AC autosampler (Shimadzu Scientific Instruments, Columbia, MD) coupled with a Sciex Triple Quad 6500+ mass spectrometer from Applied Biosystems (Foster City, CA). […] Mobile phase A consisted of 0.1% formic acid in water, and mobile phase B consisted of 0.1% formic acid in acetonitrile. The total LC-MS/MS runtime was 2.75 minutes with a flow rate of 0.75 mL/min. Peak area integrations and peak area ratio calculations were performed using Analyst software (version 1.6.3) from Applied Biosystems.
The in vitro intrinsic clearance, CLint, in vitro, was calculated from the t1/2 of test compound disappearance as CLint, in vitro=(0.693/t1/2)×(1/Cprotein), where Cprotein is the protein concentration during the incubation, and t1/2 was determined by the slope (k) of the log-linear regression analysis of the concentration versus time profiles; thus, t1/2=ln 2/k. The CLint, in vitro values were scaled to the in vivo values for human by using physiologically based scaling factors, hepatic microsomal protein concentrations (45 mg protein/g liver), and liver weights (21 g/kg body weight). The equation CLint=CLint, in vitro×(mg protein/g liver weight)×(g liver weight/kg body weight) was used. The in vivo hepatic clearance (CLH) was then calculated by using CLint and hepatic blood flow, Q (20 mL·min^−1·kg^−1 in humans) in the well-stirred liver model disregarding all binding from CLH=(Q×CLint)/(Q+CLint). The hepatic extraction ratio was calculated as CLH divided by Q.

[5] = biological target: TRKA (Homo sapiens, UniProt P04629); assay: TRKA enzymatic assay; assay type: biochemical; settings: 1 mM ATP
Experimental: (§3) Example I. TRKA Enzymatic Assay
(§4) The kinase assays were carried out at 24° C. temperature in assay buffer (HEPES 50 mM, pH 7.0, NaN3 0.02%, BSA 0.01%, Orthovanadate 0.1 mM, DTT 1 mM, MgCl2 10 mM) in a final volume of 10 μL. Testing compounds were prepared by serial dilution in DMSO and transferred to the plate wells by ECHO liquid handler (Labcyte) with 0.5% DMSO in the final assay. […]. Reactions were initiated by the addition of 5 μL ATP in assay buffer. The final 10 μL kinase reaction consists of 0.58 nM TRKA, 1 mM ATP, 500 nM TK Substrate-biotin and SEB reagent 62.5 nM in assay buffer. […] After 60 minutes incubation at room temperature, the product activity was determined by measuring the fluorescence at 620 nm and 665 nm on Pherastar microplate reader (BMG Labtech). A ratio is calculated (665/620 nm) for each well. Wells with DMSO only were served as the positive controls and wells containing no ATP were used as negative controls. IC50 determination was performed by fitting the curve of percent control activity versus the log of the compound concentration using the Gene data.

[6] = tested on: TRKA; assay: TRKA enzymatic assay; assay type: biochemical
Experimental: as §3, §4

Chain of KIT (Homo sapiens, UniProt P10721) (P10721 26-976, species assumed): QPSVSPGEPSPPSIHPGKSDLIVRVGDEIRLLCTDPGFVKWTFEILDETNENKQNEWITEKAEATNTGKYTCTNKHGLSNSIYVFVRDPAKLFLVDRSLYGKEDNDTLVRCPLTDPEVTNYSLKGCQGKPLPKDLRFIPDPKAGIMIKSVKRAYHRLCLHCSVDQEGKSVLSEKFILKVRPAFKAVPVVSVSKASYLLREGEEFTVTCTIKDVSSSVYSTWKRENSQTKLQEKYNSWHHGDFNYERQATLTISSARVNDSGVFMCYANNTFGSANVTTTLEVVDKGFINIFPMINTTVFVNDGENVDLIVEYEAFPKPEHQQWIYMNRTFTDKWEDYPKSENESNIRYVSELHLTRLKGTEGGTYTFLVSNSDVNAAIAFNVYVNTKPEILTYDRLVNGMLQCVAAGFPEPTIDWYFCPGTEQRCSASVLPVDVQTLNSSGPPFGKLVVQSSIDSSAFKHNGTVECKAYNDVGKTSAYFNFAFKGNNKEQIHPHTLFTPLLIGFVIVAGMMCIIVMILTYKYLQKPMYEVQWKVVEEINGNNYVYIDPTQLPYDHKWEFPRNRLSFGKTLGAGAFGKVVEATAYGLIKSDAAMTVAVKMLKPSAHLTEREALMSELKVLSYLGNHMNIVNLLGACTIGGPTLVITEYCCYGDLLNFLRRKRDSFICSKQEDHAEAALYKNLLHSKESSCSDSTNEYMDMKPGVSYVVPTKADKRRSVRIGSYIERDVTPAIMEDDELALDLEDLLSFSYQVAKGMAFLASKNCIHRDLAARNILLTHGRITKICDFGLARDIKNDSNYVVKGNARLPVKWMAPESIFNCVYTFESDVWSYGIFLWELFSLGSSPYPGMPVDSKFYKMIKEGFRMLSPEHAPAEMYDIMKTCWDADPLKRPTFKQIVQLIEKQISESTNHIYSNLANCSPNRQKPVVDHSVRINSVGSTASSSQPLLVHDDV
Chain of TRKA (Homo sapiens, UniProt P04629) (P04629 33-796, species assumed): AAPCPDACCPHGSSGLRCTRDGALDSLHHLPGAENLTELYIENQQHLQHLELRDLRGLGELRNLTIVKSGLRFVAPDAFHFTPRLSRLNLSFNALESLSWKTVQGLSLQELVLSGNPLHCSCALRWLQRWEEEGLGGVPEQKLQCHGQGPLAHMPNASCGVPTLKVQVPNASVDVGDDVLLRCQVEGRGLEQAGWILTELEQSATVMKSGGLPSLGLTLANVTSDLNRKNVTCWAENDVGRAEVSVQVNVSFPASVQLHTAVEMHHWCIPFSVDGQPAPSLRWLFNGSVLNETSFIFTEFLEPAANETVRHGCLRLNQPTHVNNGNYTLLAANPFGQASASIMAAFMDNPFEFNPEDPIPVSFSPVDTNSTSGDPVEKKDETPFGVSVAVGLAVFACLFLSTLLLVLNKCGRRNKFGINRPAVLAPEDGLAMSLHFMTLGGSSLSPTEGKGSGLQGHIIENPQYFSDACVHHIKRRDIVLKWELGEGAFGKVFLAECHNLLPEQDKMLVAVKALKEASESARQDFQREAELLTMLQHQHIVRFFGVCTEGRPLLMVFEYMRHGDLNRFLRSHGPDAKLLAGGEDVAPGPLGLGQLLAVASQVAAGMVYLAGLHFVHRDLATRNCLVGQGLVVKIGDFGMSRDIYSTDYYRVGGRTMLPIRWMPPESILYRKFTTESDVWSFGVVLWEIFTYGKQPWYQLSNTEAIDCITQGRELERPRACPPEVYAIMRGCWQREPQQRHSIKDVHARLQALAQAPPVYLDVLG

SMILES | Selectivity FLT3/JH2 V617F [1] | IC50 [2] [nM] | Selectivity KIT/JH2 V617F [3] | h-IntCL [4] | IC50 [5] [nM] | Selectivity TRKA/JH2 V617F [6]
COc1nn(C)cc1-c1[nH]c2ncc3c(c2c1-c1ccc2c(cnn2C)c1)n(C1CCOCC1)c(=O)n3C [A, reference compound] | * (selectivity of ≤500-fold) | 250 to 1250 | * (selectivity of ≤500-fold) | ‡ ‡ ‡ (h-IntCL of >1 L/h/kg) | 1250 to 2500 | ** (selectivity of >500-fold to ≤1500-fold)
[2H]C([2H])([2H])n1ncc2cc(-c3c(-c4cn(C)nc4OC)[nH]c4ncc5c(c34)n(C3CCOCC3)c(=O)n5C)ccc21 [B, reference compound] | * (selectivity of ≤500-fold) |  | ** (selectivity of >500-fold to ≤1500-fold) | ‡ ‡ (h-IntCL of ≥0.7 L/h/kg to ≤1 L/h/kg) | > 2500 | ** (selectivity of >500-fold to ≤1500-fold)
COc1nn(C)cc1-c1[nH]c2ncc3c(c2c1-c1ccc2c(cnn2C)c1)n([C@H]1CC[C@@H](CC#N)CC1)c(=O)n3C [E, reference compound] | * (selectivity of ≤500-fold) | 1250 to 2500 | *** (selectivity of >1500-fold to ≤1750-fold) | ‡ ‡ ‡ (h-IntCL of >1 L/h/kg) | 250 to 1250 | ** (selectivity of >500-fold to ≤1500-fold)
COC(=O)N[C@@H]1CC[C@@H](n2c(=O)n(C)c3cnc4[nH]c(-c5cn(C)nc5OC)c(-c5ccc(F)cc5)c4c32)C1 [Example 1, Methyl ((1R,3R)-3-(8-(4-fluorophenyl)-7-(3-methoxy-1-methyl-1H-pyrazol-4-yl)-3-methyl-2-oxo-3,6-dihydroimidazo[4,5-d]pyrrolo[2,3-b]pyridin-1(2H)-yl)cyclopentyl)carbamate] | **** (selectivity of >1750-fold to ≤5000-fold) | > 2500 | ***** (selectivity of >5000-fold to ≤12500-fold) | ‡ ‡ (h-IntCL of ≥0.7 L/h/kg to ≤1 L/h/kg) | 1250 to 2500 | ** (selectivity of >500-fold to ≤1500-fold)
COC(=O)N[C@@H]1CC[C@@H](n2c(=O)n(C)c3cnc4[nH]c(-c5cn(C)nc5OC)c(-c5ccccc5)c4c32)C1 [Example 2, Methyl ((1R,3R)-3-(7-(3-methoxy-1-methyl-1H-pyrazol-4-yl)-3-methyl-2-oxo-8-phenyl-3,6-dihydroimidazo[4,5-d]pyrrolo[2,3-b]pyridin-1(2H)-yl)cyclopentyl)carbamate] | **** (selectivity of >1750-fold to ≤5000-fold) | > 2500 | **** (selectivity of >1750-fold to ≤5000-fold) | ‡ ‡ (h-IntCL of ≥0.7 L/h/kg to ≤1 L/h/kg) | > 2500 | **** (selectivity of >1750-fold to ≤5000-fold)
COC(=O)N[C@@H]1CC[C@@H](n2c(=O)n(C)c3cnc4[nH]c(-c5cn(C)nc5OC)c(-c5cccc(F)c5)c4c32)C1 [Example 3, Methyl ((1R,3R)-3-(8-(3-fluorophenyl)-7-(3-methoxy-1-methyl-1H-pyrazol-4-yl)-3-methyl-2-oxo-3,6-dihydroimidazo[4,5-d]pyrrolo[2,3-b]pyridin-1(2H)-yl)cyclopentyl)carbamate] | **** (selectivity of >1750-fold to ≤5000-fold) | 1250 to 2500 | **** (selectivity of >1750-fold to ≤5000-fold) | ‡ ‡ (h-IntCL of ≥0.7 L/h/kg to ≤1 L/h/kg) | 1250 to 2500 | **** (selectivity of >1750-fold to ≤5000-fold)
COC(=O)N[C@@H]1CC[C@@H](n2c(=O)n(C)c3cnc4[nH]c(-c5cn(C)nc5OC)c(-c5ccc(OC)c(F)c5)c4c32)C1 [Example 4, Methyl ((1R,3R)-3-(8-(3-fluoro-4-methoxyphenyl)-7-(3-methoxy-1-methyl-1H-pyrazol-4-yl)-3-methyl-2-oxo-3,6-dihydroimidazo[4,5-d]pyrrolo[2,3-b]pyridin-1(2H)-yl)cyclopentyl)carbamate] | ***** (selectivity of >5000-fold to ≤12500-fold) | > 2500 | ****** (selectivity of >12500-fold) | ‡ (h-IntCL of <0.7 L/h/kg) | > 2500 | ***** (selectivity of >5000-fold to ≤12500-fold)
[2H]C([2H])([2H])n1ncc2cc(-c3c(-c4cn(C)nc4OC)[nH]c4ncc5c(c34)n([C@@H]3CC[C@@H](NC(=O)OC)C3)c(=O)n5C)ccc21 [Example 5, Methyl ((1R,3R)-3-(7-(3-methoxy-1-methyl-1H-pyrazol-4-yl)-3-methyl-8-(1-(methyl-d3)-1H-indazol-5-yl)-2-oxo-3,6-dihydroimidazo[4,5-d]pyrrolo[2,3-b]pyridin-1(2H)-yl)cyclopentyl)carbamate] | ***** (selectivity of >5000-fold to ≤12500-fold) | > 2500 | ****** (selectivity of >12500-fold) | ‡ (h-IntCL of <0.7 L/h/kg) | > 2500 | ****** (selectivity of >12500-fold)
[2H]C([2H])([2H])n1cc(-c2[nH]c3ncc4c(c3c2-c2ccc3c(cnn3C([2H])([2H])[2H])c2)n([C@@H]2CC[C@@H](NC(=O)OC)C2)c(=O)n4C([2H])([2H])[2H])c(F)n1 [Example 6, Methyl ((1R,3R)-3-(7-(3-fluoro-1-(methyl-d3)-1H-pyrazol-4-yl)-3-(methyl-d3)-8-(1-(methyl-d3)-1H-indazol-5-yl)-2-oxo-3,6-dihydroimidazo[4,5-d]pyrrolo[2,3-b]pyridin-1(2H)-yl)cyclopentyl)carbamate] | ***** (selectivity of >5000-fold to ≤12500-fold) | 250 to 1250 | **** (selectivity of >1750-fold to ≤5000-fold) | ‡ ‡ (h-IntCL of ≥0.7 L/h/kg to ≤1 L/h/kg) | > 2500 | ****** (selectivity of >12500-fold)
